Assay results as given in patent US12077568B2 (University of Houston System, priority 2018, dated 2024).

Experiments:
[1] = system: normal mice; assay: Lowering of blood glucose level in normal mice; assay type: in vivo; conditions: intraperitoneal, 20-24 μg/mouse
Procedure: FIGS. 7A-B. Effect of SPC-insulins on lowering blood glucose level in vivo. The purified yeast-(FIG. 7A) or E. coli-(FIG. 7B) expressed SPC-insulin-P (p-insulin) and SPC-insulin-PP (2p-insulin) (20-24 μg/mouse) was injected (intraperitoneally) into normal mice. The glucose levels of the blood collected from tail vein at the increasing time points were measured using Contour^next One glucose meter (n=6). Humulin R (20-24 μg/mouse) was used as a positive control (n=6, M±SE). The mice were under normal diets.
FIGS. 8A-B. (FIG. 8A) Effect of SPC-insulins on lowering blood glucose level of normal mice using subcutaneous injection. The yeast-expressed SPC-insulin-P (p-insulin) and SPC-insulin-PP (2p-insulin) (20-30 μg/mouse) was injected subcutaneously into the normal mice (n=6). (FIG. 8B) Effects of the purified E. coli-expressed SPC-insulins on lowering blood glucose level of STZ-induced type-1 diabetic mice. 20-30 μg/mouse of the purified E. coli-expressed SPC-P (P-insulin) or SPC-insulin-PP (PP-insulin) was intraperitoneally injected into the STZ-induced Type-1 diabetic mice (with an elevated blood glucose levels of 370-400 mg/dl, n=6). The glucose levels of the blood collected from the mouse tail vein at the increasing time points were measured using Contour^next One glucose meter. Humulin R (20-24 μg/mouse) was used as a positive control (n=6, M±SE). […]

[2] = system: STZ-induced type-1 diabetic mice; assay: Lowering of blood glucose level in STZ-induced type-1 diabetic mice; assay type: in vivo; conditions: intraperitoneal, 20-30 μg/mouse; for start of working after injection: purified E. coli-expressed
Procedure: FIGS. 8A-B. (FIG. 8A) Effect of SPC-insulins on lowering blood glucose level of normal mice using subcutaneous injection. The yeast-expressed SPC-insulin-P (p-insulin) and SPC-insulin-PP (2p-insulin) (20-30 μg/mouse) was injected subcutaneously into the normal mice (n=6). (FIG. 8B) Effects of the purified E. coli-expressed SPC-insulins on lowering blood glucose level of STZ-induced type-1 diabetic mice. 20-30 μg/mouse of the purified E. coli-expressed SPC-P (P-insulin) or SPC-insulin-PP (PP-insulin) was intraperitoneally injected into the STZ-induced Type-1 diabetic mice (with an elevated blood glucose levels of 370-400 mg/dl, n=6). The glucose levels of the blood collected from the mouse tail vein at the increasing time points were measured using Contour^next One glucose meter. Humulin R (20-24 μg/mouse) was used as a positive control (n=6, M±SE). STZ-Control=oval; Hummulin R=rectangle; SPC-Insulin-P=upward pointing triangle; SPC-Insulin-PP=downward pointing triangle.
The second animal model is the STZ-induced type-1 diabetic mouse. The mice received STZ injection quickly developed into type 1 diabetes because STZ destroyed the insulin-producing cells in pancreas and elevated the glucose level (FIGS. 8A-B, blood glucose level labeled with STZ). The both of the purified SPC-insulin-P and -PP were tested on the diabetic mice. Similar to that of the normal mice, the SPC-insulins started working around 1-1.5 hours after injection, reached to the best therapeutic effects around 4 hours, and then last for 24-48 hours (FIGS. 8A-B).

[3] = commercial insulins; cited from earlier work

With “Humulin R: commercial regular human insulin, two-chain, used as positive control” the “duration of blood glucose lowering effect” value [1] was 4 to 8 h.
With “SPC-insulin-P: single polypeptide chain human insulin, b-chain C-terminus linked to a-chain N-terminus by one proline residue” the duration of effect [2] was 24 to 48 h, the “time to best therapeutic effect” value [2] was “around 4 hours” and the “start of working after injection” value [2] was 1 to 1.5 h.
In the case of “SPC-insulin-PP: single polypeptide chain human insulin, b-chain linked to a-chain by two proline residues”, the duration of effect [2] is reported as 24 to 48 h, the “time to best therapeutic effect” value [2] is reported as “around 4 hours” and the “start of working after injection” value [2] is reported as 1 to 1.5 h.
In the case of insulin Detemir, the duration of action [3] is given as 18 to 24 h.
For insulin Glargine, the duration of action [3] is listed as 18 to 24 h.
